Measurements reported in US4442102A, “1,5-Diphenylpyrazolin-3-one compounds, process and intermediates for preparation thereof and pharmaceutical compositions containing same” (Kali-Chemie Pharma GmbH, priority 1981, dated 1984).

System: passive cutaneous anaphylaxis
Experiment: Inhibition of passive cutaneous anaphylaxis (PCA test)
Assay type: in vivo, rats (Wistar)
Details: Rattus norvegicus, po; rats, p.o., 10 minutes before ovoalbumin challenge i.p.
Description: For example, the substances have an inhibiting action on the release of endogenic mediators from mast cells or basophilic leucocytes which leads to allergic reactions. The doses to be used vary, of course, depending on the nature of the substance used, on the mode of administration and on the condition to be treated. In general, however, satisfactory results are achieved in animal experiments with doses of from 0.05 to 75 mg. per kg of body weight.
Description of the test method to determine the inhibition of passive cutaneous anaphylaxis (PCA test, see Arch.int. pharmacology 252 (1981) 316-326).
To prepare the IgE-antiovoalbumin serum, used in the test, by the method of Mota (Immunology 7, (1964) 681) and J. Goose (Immunology 16 (1969) 749), male Wistar rats of 200-250 g. body weight were sensitised by subcutaneous injection of 1 mg. of ovoalbumin and 1 ml. of Bordatella pertussis suspension ("Vaxicoq" Merieux 3.10^10 organisms/ml.). After 14 days, the animals are exsanguinated and the blood is centrifuged. The antiserum thus obtained is stored at […].
Non-sensitised rats are injected, in each case, with 0.1 ml. of antiserum into the skin at four different places on their shaven backs. After 72 hours, a solution of the test compound or, for comparison, only the solvent, is administered orally, and 10 minutes later, 5 mg. of ovoalbumin and 5 mg. of blue dyestuff (Evans blue) in 0.9% strength NaCl solution are administered intraperitoneally. After 30 minutes, the animals are sacrificed and the diameters of the blue spots formed at the sites injected with antiserum are measured. The inhibiting effect of the test substance is determined from the size of the blue spots which appear.
The example numbers given for the compounds of the formula I relate to the preparation Examples below.

Row | Structure (SMILES) | ED50 [mg/kg]
1 | O=c1cc(-c2ccccc2)n(-c2ccccc2)n1CCCN1CCN(c2ccccn2)CC1 [Example 1, 1,5-Diphenyl-2-{3-[4-(2-pyridyl)-piperazin-1-yl]-propyl}-pyrazolin-3-one] | 0.8
2 | O=c1cc(-c2ccc(Cl)cc2)n(-c2ccccc2)n1CCCN1CCN(c2ccccn2)CC1 [Example 13] | 8.5
3 | O=c1cc(-c2ccccc2)n(-c2ccccc2)n1CCCN1CCN(c2ccc(F)cc2)CC1 [Example 22] | 9.8
4 | Cc1ccnc(N2CCN(CCCn3c(=O)cc(-c4ccccc4)n3-c3ccccc3)CC2)c1 [Example 27] | 8.2
